One data set concerns Lamp1-GFP/ATG5-KO MEFs. Briefly: Evaluation of activity to induce alternative autophagy (fluorescent bright spots due to aggregation of Lamp1-GFP). The data set is classed as cell-based, mouse. As to conditions: for aggregation of Lamp1-GFP, visually determined: concentrations of 10 μM or higher (10 to 50 μM), 5 hours. As to the method:
First, by using a retrovirus, a gene for expression of a Lamp1-GFP fusion protein (also referred to as “Lamp1-GFP”) was introduced into ATG5-deficient mouse embryonic fibroblasts (also referred to as “ATG5-KO MEFs”). Then, a cell with high expression of Lamp1-GFP was cloned and prepared as Lamp1-GFP/ATG5-KO MEFs.
The ATG5-KO MEFs were prepared by introducing a gene for expression of SV40T antigen into MEFs established from an ATG5-deficient C57/B6J mouse at a fetal age of 14.5 days by an electroporation method using an Nucleofector system (manufactured by amaxa) for immortalization. In addition, the retrovirus was prepared by introducing an MSCV-Lamp1-GFP (zeocin resistant) vector into plat E cells, which were retrovirus packaging cells.
To the Lamp1-GFP/ATG5-KO MEFs seeded at 1×10^4/96 wells on the preceding day, each of the test compounds was added at a final concentration of 50 μM, and the Lamp1-GFP/ATG5-KO MEFs were cultured at 37° C. under 10% CO2 for 5 hours.
Then, for observation, Hoechst 33342 (manufactured by invitrogen) was added at a final concentration of 1 ng/ml to each culture liquid, followed by incubation for 5 minutes. Then, the culture liquid was replaced with 100 μl of HBSS. Subsequently, five visual fields per well were photographed at random with IN CELL ANALYZER 1000 (manufactured by GE Healthcare).
Then, the thus obtained novel benzothiophene compounds (TMD-459 and TMD-460) were evaluated for the ability to induce alternative autophagy by the same method as that described in Example 1. Note that, in Example 10, each of the compounds was added to culture liquids at final concentrations of 10, 20, 30, 40, and 50 μM. In addition, compound #9 was also added as a reference example to culture liquids at the above-described concentrations. Then, 5 hours after the addition of each of these compounds, five visual fields per each well were photographed at random with IN CELL ANALYZER 1000, and the presence or absence of fluorescent bright spots due to the aggregation of Lamp1-GFP was visually determined.

For data set [1], the system named is MEFs immortalized with SV40T antigen. Briefly: cells. As to conditions: Mus musculus, 24 h, read-out: induced cell death of the MEFs immortalized with SV40T antigen.
Data set [2] relates to fibroblasts (cancer cells) immortalized with SV40. Briefly: Activity to induce cell death specific to cancer cells: cancer cells (CTB survival rate). As to conditions: 20 μM, FIGS. 7 and 8. In kind it is cell-based.
Data set [3] concerns 53T implanted in wild-type C57/B6J mice. Briefly: Survival rate of cancer-bearing mice. The data set is classed as in vivo, mouse. Particulars: 10 μM every other day 5 times; compared with etoposide at 10 μM, FIGS. 13 to 15.
For data set [4], the system named is mouse tumor cell line 53T. Briefly: Evaluation of in vitro anticancer activity (Cell titer blue, cell death induction rate). The data set is classed as cell-based. Also noted: key: (CTB of negative control − CTB treated)/CTB of negative control. As to conditions: 24 hours, CTB. How it is done:
First, the mouse tumor cell line 53T was seeded at 2×10^4/well on 96 well plates. Then, on the following day, each of compounds #09 and #13 dissolved in DMSO was added at a final concentration of 1, 5, 10, 20, or 50 μM. In addition, a negative control to which only DMSO was added was prepared. Subsequently, the cells were cultured at 37° C. under 10% CO2 for 24 hours. Then, by using Cell titer blue (CTB) (manufactured by Promega) according to the attached protocol, the amount of the fluorescence of each well of the cells 10 minutes after the addition of the CTB reagent was measured as a CTB measurement value of the cells brought into contact with compound #09 or #13. On the basis of such measurement values, the cell death induction rate of each of compounds #09 and #13 was calculated according to the following formula. Cell death induction rate=(CTB measurement value of negative control−CTB measurement value of cells to which compound was added)/CTB measurement value of negative control
(Resazurin is reduced to fluorescent resorufin, in cell work by metabolically active cells.)

Data set [5] concerns tumor cell line 53T implanted in wild-type C57/B6J mice. Briefly: In vivo anticancer activity, tumor volume in cancer-bearing mice implanted with 53T. Also noted: species or system mouse. As to the method: A tumor cell line (also referred to as “53T”) established from a tumor developed spontaneously in a p53 deficient C57/B6J mouse was implanted at 4 sites in the ventral skin of each of wild-type C57/B6J mice at 3×10^5 cells per site. From the following day, the compounds were administered to the mice every other day five times in total. The concentration of each compound was 0.4 μmol/(50 μl DMSO+100 μl PBS)/mouse/administration. In addition, a negative control group to which only the same amount of DMSO was administered was prepared. Then, 21 days (3 weeks) after the implantation, the tumor diameters of the mice were measured, and the tumor volumes were calculated, and compared with that of the control group.
The 53T was implanted at 4 sites in the ventral skin of each of wild-type C57/B6J mice at 3×10^5 cells per site. From the following day, 0 (DMSO alone), 5, 10, or 20 μM of each of compounds #09 and #13 was administered to six mice every other day five times in total. Then, 21 days (3 weeks) after the implantation, the tumor diameters of the mice were measured, and the tumor volumes were calculated. FIGS. 9 and 11 show the obtained results. Note that, in FIGS. 9 and 11, each point indicates the average volume of the tumors at the four sites in a mouse.
In addition, in the same manner as described above, the 53T was implanted in mice, and, from the following day, each of compound #09 at a concentration of 10 μM and compound #13 at a concentration of 5 μM was administered to four cancer-bearing mice every other day five times in total. Then, 21 days (3 weeks) after the implantation, the tumor diameters of the mice were measured, and the tumor volumes were calculated. In addition, a negative control to which DMSO was administered was also prepared, and the tumor volume was calculated in the same manner. In addition, these experiments were conducted three times independently of each other. FIGS. 10 and 12 show the obtained results. Note that in FIGS. 10 and 12, each point indicates the average volume of the tumors at the four sites in a mouse.

The subject of data set [6] is p53-deficient cancer cells (53T). Briefly: Alternative autophagy-inducing activity in tumor cell line (Lamp2 aggregation, fluorescence and electron microscope). In kind it is cell-based, mouse. As to conditions: 20 μM, six hours, FIGS. 3 to 6. As to the method:
In the same manner as in the above-described <Evaluation of Alternative Autophagy-Inducing Activity> using the Lamp1-GFP/ATG5-KO MEFs, each of the compounds #09 and #13 was added at a final concentration of 20 μM to a culture liquid of the tumor cell line (also referred to as “53T”) established from the tumor developed spontaneously in the p53 deficient C57/B6J mouse. […] Note that, in this evaluation, Lamp2 was used instead of Lamp1. FIGS. 3 to 6 show the obtained results.

Data set [7] deals with MEFs immortalized with SV40T antigen. As to conditions: 24 hours, CTB.
Data set [8] concerns primary cultured fibroblasts (normal cells). The data set is described as follows: Activity to induce cell death specific to cancer cells: normal cells (CTB survival rate). In kind it is cell-based. Particulars: 20 μM, FIGS. 7 and 8. How it is done: CTB measurement values were obtained in the same manner as in the above-described <Evaluation of In Vitro Anticancer Activity> by adding each of compounds #09 and #13 at a final concentration of 20 μM to culture liquids of primary cultured fibroblasts (normal cells) and fibroblasts (cancer cells) immortalized with SV40. On the basis of the obtained CTB measurement values, the cell survival rate was calculated over time. Note that the cell survival rate was defined as 1-cell death induction rate. FIGS. 7 and 8 show the obtained results.

This is an account of results in patent publication US10954222B2, “Benzothiophene compound, alternative autophagy-inducing agent and anticancer agent including the compound as active ingredient, and method for screening for compound having anticancer activity” (National University Corporation Tokyo Medical and Dental …, priority 2012, dated 2021).

Read-outs that look alike come from different tables or passages of the source. Where only a bound is given, the exact number is not on record here.

For `CCOC(=O)c1c(NC(C)=O)sc2c(OCCN(CC)CC)c(Br)ccc12` [Compound #09, Ethyl 2-Acetylamino-6-bromo-7-[2-(N,N-diethylamino)ethyloxy]benzo[b]thiophene-3-carboxylate], the “alternative autophagy-inducing activity (FIG. 16)” value in the data set with Lamp1-GFP/ATG5-KO MEFs (Example 9, same method as Example 1) is reported as “having alternative autophagy-inducing activity”. The “aggregation of Lamp1-GFP, visually determined” value in the data set with Lamp1-GFP/ATG5-KO MEFs is recorded as “aggregation of the Lamp1-GFP was observed in all the cells”. Besides, in data set [1], the mortality at 20 µM is no less than 80%. Further, in data set [2], the “cell death-inducing activity on cancer cells (cell survival rate over time)” value is listed as “exhibited remarkable cell death-inducing activity on the cancer cells”. Also, the “improvement effect on the survival rate of the cancer-bearing mice” value in [3] was “higher improvement effect on the survival rate of the cancer-bearing mice than etoposide”. In addition, the “Cell death induction rate” value in data set [4] (1 μM) came to 0; in [4] (5 μM), 0.07741; in [4] (10 μM) it was 0.1725; in data set [4] (20 μM) it was 0.6305; in data set [4] (50 μM), 0.9456; in data set [7] (10 μM), 0.7426. Also, the “Cell death induction rate” value stood at 0.887 in data set [7] (20 μM), 0.89 in data set [7] (30 μM), 0.8913 in data set [7] (40 μM) and 0.8848 in data set [7] (50 μM). Further, the “dose dependence of in vivo anticancer activity (FIG. 9)” value in data set [5] (0, 5, 10, or 20 μM) is on record as “dose-dependent activity”. Further, in data set [5] (0.4 μmol/mouse/administration, every other day five times, 21 days after implantation), the “in vivo anticancer activity (tumor volume vs control group, FIG. 2)” value is “selected as compounds having in vivo anticancer activity”. The “in vivo anticancer activity (tumor volume, FIGS. 9 to 12)” value in data set [5] (5, 10, or 20 μM every other day five times, 21 days after implantation) was “exhibited in vivo anticancer activity”. Further, in data set [5] (Example 9), the “anticancer activity (FIG. 17, tumor volumes in cancer-bearing mice)” value is “had anticancer activity”. The “aggregation of Lamp2 and occurrence of autophagy” value in data set [6] is “aggregation of the lysosomal protein Lamp2 and occurrence of autophagy were observed”. The “cell death of normal cells (cell survival rate over time)” value in [8] was “hardly induced cell death of the normal cells”.

Regarding `CCOC(=O)c1c(N)sc2c(OCCN(CC)CC)c(Br)ccc12` [TMD-460, Ethyl 2-Amino-7-[2-(N,N-diethylamino)ethyloxy]-6-bromobenzo[b]thiophene-3-carboxylate], the “aggregation of Lamp1-GFP, visually determined” value in the data set with Lamp1-GFP/ATG5-KO MEFs was “aggregation of the Lamp1-GFP was observed in all the cells”. Further, in data set [1], the mortality at 20 µM was no less than 80%. The “Cell death induction rate” value was 0.7701 in data set [7] (10 μM); 0.875 in data set [7] (20 μM); 0.8885 in data set [7] (30 μM); 0.8902 in data set [7] (40 μM); 0.8919 in [7] (50 μM).
